Laboratory results from patent publication US20160011176A1, “METHOD AND DEVICE FOR EXAMINING MYOCARDIAL TOXICITY AND EVALUATING CARDIOMYOCYTES” (NATIONAL UNIVERSITY CORPORATION TOKYO MEDICAL AND DENTAL …, priority 2012, published 2016).

Assays:
cardiomyocyte network [1] = experiment: Excitation conduction transmitting through a linearly arranged cardiomyocyte network (transmission time, its fluctuation, FPD, STVFPD); assay type: cell-based
Description: FIGS. 65a, b schematically show an example of a method of such measurement of excitation conduction transmitting through a cardiomyocyte network. […] Arranged on a bottom surface of each cell housing on a substrate surface are respective electrodes (about 8 μm in diameter) for measurements of cellular potential, and from each of the electrodes, respective lead lines are extended. A single cardiomyocyte is received in each of the cell housings.
Specifically, in order to measure the temporal variation in the excitation conduction transmitting through the cellular population, an ignition peak of depolarization excited by an initial excitation conduction of each cell or each local point is measured, and at the same time, an ignition peak of an initial depolarization based on excitation conduction in another local area of adjacent another cell or adjacent another cellular population is measured; then a variation of a transmission rate or a transmission elapsed time is measured with respect to the distance between the two measurement points; and then the level of fluctuation of the transmission is quantitatively measured. Generally, the initial peak based on the excitation conduction is deemed to be a sodium spike. Thus, in view of this, the measurements of the initial ignition peak based on the excitation conduction are equivalent to the measurements of the sodium spikes. For example, where a drug with a big risk of proarrhlythmia is used, an increase in the fluctuation is utilized for the measurements. Here, the following are required: (1) a network of a plurality of cardiomyocytes is formed; (2) there is a means for accurately measuring the transmission delay time by measuring respective cellular potential wave form at two or more spatially different points within the network, and simultaneously accurately measuring the time of depolarization ignition spikes excited by the initial excitation conduction of the wave form; (3) in the case where a forced pulsation is provided, three or more electrodes are used to measure time required for transmission of the pulsation between respective electrodes at other measurement electrodes using the electrodes at both ends as stimulation electrodes, enabling measurements of temporal fluctuation of transmission rate or transmission time between the electrodes. As for the fluctuation, the STV as shown in Equation 3 in FIG. 24(c), for example, can be used for quantification. Here, Delayn and Delayn+1 (FIG. 65) can substitute for Vn and Vn+1. For transmission, when velocity is used, respective velocities can substitute for Delayn and Delayn+1. […] Thus, the transmission time will be measured as an extremely shorter transmission time than a transmission delay measured normally between adjacent electrodes. […]

cardiomyocyte network [2] = experiment: Simultaneous measurement of extracellular potential (FP) and contractile force (optical imaging) in a cardiomyocyte network; assay type: cell-based
Description: FIG. 43 is a schematic diagram showing an example of a system configuration of the present invention to simultaneously measure the mechanical properties and electrical properties of cardiomyocytes. The present system includes (1) a cellular network chip that can be used for culturing a cell population, includes a plurality of micro-electrodes disposed on a substrate and can be used for acquiring cellular potential data of a small area of the population; (2) a chip mounter for mounting the chip and joining electrically with cell-stimulating and/or cellular potential measuring system; (3) an environmental control vessel which can be used to control the environment such as temperature, humidity, oxygen concentration and carbon dioxide concentration of the cell population being cultured; (4) a micro multi-electrode potential measurement system that can give stimulation to a specific cell of a cardiomyocyte population, and allows simultaneous continuous measurements of cellular potentials of various small areas in the cell population; (5) one or more position-coordinate probe microparticles configured to measure changes in shape of myocardial cells and allow easy identification of cardiomyocytes using a plastic, polymer, glass or metal microparticles such as polystyrene microparticles, glass microparticles or gold microparticles of sizes from at minimum about 0.1, 0.2 μm, 0.3 μm, 0.4 μm, 0.5 μm, 0.6 μm, 0.7 μm, or preferably about 0.8 μm, more preferably about 0.9 μm, or most preferably about 1 μm to at most about 500 μm, 400 μm, 300 μm, preferably about 200 μm, more preferably about 100 μm or most preferably about 50 μm, wherein the particles are disposed in the cell population by mixing them on the surface of the cardiomyocyte population in the cell network chip or in the cell population and culturing them; (6) an optical image capturing system for optically measuring the microparticles, wherein the system includes a light source, an optical microscope and an image-capturing camera to capture the images of the microparticles; and (7) a computer system for image analysis, cellular potential analysis, stimulus control and/or integrated data acquisition, wherein the system is capable of measurements of cellular potential and analysis of waveforms of the potential, measurements of cell displacements by image analysis and feedback stimulation based on the analysis results. In the measurements using the device system, as for the stimulus to cause depolarization of the myocardial cells, the stimulus can be provided by selecting mainly from three means, i.e., (A) measurements using conduction of autonomous pulsation of the cardiomyocyte population, (B) measurements of conduction by providing a forced electrical stimulation from outside to a specific cell in the cardiomyocyte population and (C) measurements of conduction by providing a feed-back stimulus at a specific timing to meet the relationship of the delay time and the value of the cellular potential based on the cell voltage measured data to the specific cells in the cardiomyocyte population.
FIG. 44 is an example of a data acquisition monitor screen showing an example of data obtained from an example of a system configuration of the present invention to simultaneously measure the mechanical properties and the electrical properties of cardiomyocytes. In a setting of this example, a large number of polystyrene microparticles are placed on the surface of the cardiomyocyte population, a probe-particle displacement-observation window for five of the polystyrene microparticles selected as probes is set, and the center of gravity of the window moves with the movement of the microparticles in the window, thereby displacement of the particular probe microparticles can be measured continuously as a change in vector time in the directions of the X-axis and Y-axis. […]

Compound | fluctuation of FPD (STVFPD) (cardiomyocyte network [1]; FIG. 66e) | FPD (as indicator of toxicity) (cardiomyocyte network [1]; FIG. 66d) | fluctuation of time required for transmission (cardiomyocyte network [1]; concentration over 1 μM) | transmission rate between adjacent electrodes (relative to no drug) (cardiomyocyte network [1]; concentration over 1 μM) | angle fluctuation against a decrease in contractile force (cardiomyocyte network [2]; 10 nM) | angle fluctuation (contraction direction) (cardiomyocyte network [2]; 100 nM) | contractile forces (time variation) (cardiomyocyte network [2]; 100 nM) | electrical firing of excitatory conduction of cells (cardiomyocyte network [2]; 100 nM) | electrophysiological excitation (cardiomyocyte network [2]; 1000 nM) | mechanical contraction (cardiomyocyte network [2]; 1000 nM)
CC(C)(C)c1ccc(C(O)CCCN2CCC(C(O)(c3ccccc3)c3ccccc3)CC2)cc1 (stereo not shown) [terfenadine] | barely recognizable | is not seen | increases | suddenly decreased | – | – | – | – | – | –
COc1ccc(CCN(C)CCCC(C#N)(c2ccc(OC)c(OC)c2)C(C)C)cc1OC (stereo not shown) [verapamil] | – | – | – | – | barely increases | rapid fluctuation of contractile direction in the angular direction | disappear rapidly | is maintained | does not occur | does not occur
